From the NIST ThermoML archive (doi:10.1016/j.tca.2016.09.014)
± gives the expanded uncertainty stated by the source.

Key:
[1] = Molar enthalpy of transition or fusion; conditions: Crystal; DSC
[2] = Crystal; DTA

| SMILES | Molar enthalpy of transition or fusion [1] [kJ/mol] | Normal melting temperature [2] [°C] |
| --- | --- | --- |
| CCCCCCCCCCCCCCCCCC(=O)O [octadecanoic acid] | 50.4 ± 1.4 |  |
| CCCCCCCCCCCCCCCCOC(=O)CCCCCCCCCCCCCCC [cetyl palmitate] | 66 ± 1.8 | 41.27 ± 5 |
| O=C(O)c1cc(-c2ccc(F)cc2F)ccc1O [2',4'-difluoro-4-hydroxy-1,1'-biphenyl-3-carboxylic acid] | 38.6 ± 1.1 | 211.78 ± 5 |
